The values below come from patent US20130197071A1, “PRODUCTION OF LIPOXYGENASE INHIBITORS VIA FUNGAL BIOSYNTHETIC PATHWAY” (UNIVERSITY OF SOUTHERN CALIFORNIA, priority 2012, published 2013).

Data set [1] in a line: Solubility of compound 5 in aqueous culture media. The format is physicochemical. Particulars: liquid lactose minimal medium culture. From the text: The fungal strain used to over-produce compound 5 contains genetic alterations as described in Table 1. The native promoter of afoA, the gene that codes for the pathway-specific transcription activator of the asperfuranone pathway was replaced with the inducible alcohol dehydrogenase promoter, alcA. The afoD gene, that codes for the hydroxylase in the asperfuranone pathway, was deleted to enable the accumulation of intermediate, compound 5.^11 It should be noted that the afo cluster is silent under normal laboratory growing conditions. The wild type strain, thus, produced non-detectable compound 5 and asperfuranone (4).

The target of data set [2] is T1, soybean LOX-1 (Lipoxygenase-1, 15-Lipoxygenase) (Glycine max, UniProt P08170).
T1 construct: purchased Cayman Chemical #60712
T1 sequence (P08170 1-839): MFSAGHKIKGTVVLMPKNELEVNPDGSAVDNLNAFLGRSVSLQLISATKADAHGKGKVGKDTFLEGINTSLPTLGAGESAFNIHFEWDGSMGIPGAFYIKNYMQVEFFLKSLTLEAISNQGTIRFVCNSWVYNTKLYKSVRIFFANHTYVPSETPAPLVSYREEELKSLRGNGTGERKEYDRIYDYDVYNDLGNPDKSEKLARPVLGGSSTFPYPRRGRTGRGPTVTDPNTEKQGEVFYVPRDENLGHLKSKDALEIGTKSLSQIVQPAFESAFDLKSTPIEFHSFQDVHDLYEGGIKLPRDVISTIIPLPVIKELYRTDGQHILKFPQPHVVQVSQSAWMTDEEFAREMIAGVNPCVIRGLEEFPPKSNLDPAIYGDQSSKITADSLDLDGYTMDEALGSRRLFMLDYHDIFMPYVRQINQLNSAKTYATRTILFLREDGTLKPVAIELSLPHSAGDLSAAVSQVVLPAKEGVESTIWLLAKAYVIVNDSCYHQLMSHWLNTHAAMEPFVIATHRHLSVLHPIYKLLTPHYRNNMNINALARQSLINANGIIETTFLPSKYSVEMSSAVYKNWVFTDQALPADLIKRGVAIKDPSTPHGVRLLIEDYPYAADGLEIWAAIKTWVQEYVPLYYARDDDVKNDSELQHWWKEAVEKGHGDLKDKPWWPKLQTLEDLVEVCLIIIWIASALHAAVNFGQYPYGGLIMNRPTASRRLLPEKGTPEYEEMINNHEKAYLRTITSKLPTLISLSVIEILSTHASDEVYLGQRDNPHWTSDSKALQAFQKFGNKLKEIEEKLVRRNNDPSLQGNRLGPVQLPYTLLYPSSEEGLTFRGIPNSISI
Nature of the data set: Soybean lipoxygenase-1 (LOX-1) inhibition assay, spectrophotometric at 234 nm, linoleic acid substrate. The format is biochemical. Particulars: for LOX-1 inhibition (result in words): screening for soybean LOX-1 inhibition. Here is the method: ^1H and ^13C NMR spectra were recorded on a Varian Mercury Plus 400 spectrometer. Chemical shifts are reported in ppm relative to CDCl3 (^1H, δ 7.26; ^13C, δ 77.0) or acetone-d6 (^1H, δ 2.05; ^13C, δ 30.0, 206.0). ^1H NMR data is reported as: chemical shift, multiplicity (s=singlet, d=doublet, t=triplet, q=quartet, m=multiplet), coupling constant, and integration. Infrared spectra were recorded on a JASCO FTIR-4100. Infrared frequencies are reported in reciprocal centimeters. High resolution electrospray ionization mass was obtained on an Agilent 6210 time of flight LC-MS. Reactions were monitored by analytical thin-layer chromatography on EMD silica gel-60^F254 plates. Flash chromatography was performed on EMD silica gel 60, 70-230 mesh. All reagents were used without further purification unless otherwise noted. Reagents were purchased from Sigma-Aldrich, and Alfa Aesar. Diethyl ether (anhydrous) and 1,2-dichloroethane (anhydrous) were used directly from the bottle. Water sensitive reactions were performed under a nitrogen atmosphere with oven-dried glassware. Kinetic experiments for lipoxygenase inhibition were recorded on a Shimadzu UV-2401PC at 26° C. Materials for the lipoxygenase assay such as linoleic acid, 15-Lipoxygenase (soybean PO, and (+)-sclerotiorin were purchased from Cayman Chemicals.
The enzyme assay was performed according to Axelrod et. al.^18 Each solution was prepared and measured at room temperature. Enzyme kinetics was measured on a Shimadzu UV-2401PC at a wavelength of 234 nm in a quartz cuvette (FIG. 6). For the assay, the linoleic acid substrate was prepared by mixing 20 μL linoleic acid (Cayman Chemical #760716) with 20 μL KOH (Cayman Chemical #760713) and 40 μL double distilled water. Lipoxygenase-1 (Cayman Chemical #60712) was diluted from original stock concentration to a concentration of 100 U/mL in the cuvette. The semisynthetic azaphilones were prepared as stock concentrations in dimethylsulfoxide (DMSO) from 20 μM to 10 mM; 54, was added to the assay mixture to give the desired final concentration of the inhibitor with 1% of DMSO in the assay.
The spectrophotometric assay is based on monitoring the reaction, catalyzed by LOX-1 to convert linoleic acid (L) to the hydroperoxide (LOOH), at 234 nm. […] The reaction is initiated when the non-heme iron of LOX-1 in the ferric state is reduced by the substrate L. While in the enzyme-substrate complex, L is oxidized and converted to the peroxide free radical (LOO.), and subsequently released from the enzyme as LOOH Inhibitors can interfere in the process in several different ways to prevent the generation of LOOH by the chelation of iron, removal of oxygen or prevention of free radical formation.
Prior to measurements, a sample with buffer was used as a blank. In a quartz cuvette, each sample was prepared with 482.54, 0.2 M borate buffer (at a pH of 9.0) mixed with 54, inhibitor and 54, substrate by pipetting the solution. The cuvette was placed in the spectrophotometer and measured for 120 seconds and then rapidly 7.54, lipoxygenase-1 was added and mixed to initiate the reaction. Measurements were recorded every 30 seconds for 7.5 minutes.
Inhibition of an enzyme at 50% can be experimentally measured by monitoring enzyme kinetics. A kinetic study generates a curve where the slope provides the initial velocity (Vo) of the enzyme. For each sample with different inhibitor concentrations the initial velocity was derived from a linear segment between […]. The absorbance was used directly and not converted into concentration units. […] The concentration of inhibitor at which 50% inhibition occurred (as measured by change in Vo) was reported as the IC50.

For data set [3], the target named is T1, soybean LOX-1 (Lipoxygenase-1, 15-Lipoxygenase). As to conditions: literature report (ref. 5); cited from earlier work.
Where [4] appears, read: soybean LOX-1, linoleic acid, 0.2 M borate buffer pH 9.0, 1% DMSO, 234 nm, read-out: Lipoxygenase-1 Inhibitory Activity IC50 (μM) ± s.d.

“Also recorded” adds a separate entry of the source. Read-outs that look alike come from different tables or passages of the source. Bounds are passed on as bounds.

Broadly, the IC50 is the concentration that inhibits the measured activity by half. As for `CC[C@H](C)/C=C(C)/C=C/C(=O)Cc1cc(O)c(C)c(O)c1C=O` (stereo in doubt) [Compound 5, 2,4-dihydroxy-6-(5,7-dimethyl-2-oxo-trans-3-trans-5-nonadienyl)-3-methylbenzaldehyde], in data set [1], the “Solubility in aqueous media (in words)” value was “poorly dissolved in aqueous media”. Besides, the IC50 in data set [2] (setting [4]) was found to be 97.2 ± 2 µM.

As for `CC[C@H](C)/C=C(C)/C=C/C1=CC2=C(Cl)C(=O)[C@](C)(OC(C)=O)C(=O)C2=CO1` [Compound 1, (+)-sclerotiorin, reference compound], the “LOX-1 inhibition of (+)-sclerotiorin according to a report” value in data set [3] is listed as “potent LOX-1 inhibition”. The IC50 in data set [2] (setting [4]) was determined as 7.8 ± 2.4 µM. For the compound `CC[C@H](C)/C=C(C)/C=C/C1=CC2=CC(=O)C(C)(OC(C)=O)C(=O)C2=CO1` (stereo partly drawn) [Compound 7], the “LOX-1 inhibition (result in words)” value in data set [2] is reported as “highest lipoxgyenase-1 inhibition; also recorded: most effective”. Moreover, the IC50 in data set [2] (setting [4]) is 4.9 ± 3.3 µM. For the compound `CC[C@H](C)/C=C(C)/C=C/C1=CC2=C(Cl)C(=O)C(C)(OC(C)=O)C(=O)C2=CO1` (stereo partly drawn) [Compound 8], the IC50 in data set [2] (setting [4]) came out at 2.3 ± 0.9 µM. Take `CC[C@H](C)/C=C(C)/C=C/C1=CC2=C(Br)C(=O)C(C)(OC(C)=O)C(=O)C2=CO1` (stereo partly drawn) [Compound 9]: in data set [2] (setting [4]), the IC50 came to 6.8 ± 4.5 µM. On to `CC[C@H](C)/C=C(C)/C=C/C1=CC2=C(I)C(=O)C(C)(OC(C)=O)C(=O)C2=CO1` (stereo partly drawn) [Compound 10], for which, in data set [2] (setting [4]), the IC50 was determined as 17.4 ± 8.1 µM. Turning to `CC[C@H](C)/C=C(C)/C=C/C1=CC2=CC(=O)C(C)(O)C(=O)C2=CO1` (stereo partly drawn) [Compound 11], in data set [2] (setting [4]), the IC50 was determined as 10.7 ± 6.6 µM. `CC[C@H](C)/C=C(C)/C=C/C1=CC2=C(Cl)C(=O)C(C)(O)C(=O)C2=CO1` (stereo partly drawn) [Compound 12] came in with an IC50 in data set [2] of 7.9 ± 3.9 µM. Regarding `CC[C@H](C)/C=C(C)/C=C/C1=CC2=C(Br)C(=O)C(C)(O)C(=O)C2=CO1` (stereo partly drawn) [Compound 13], in data set [2], the “LOX-1 inhibition (result in words)” value is “highest lipoxgyenase-1 inhibition; also recorded: most effective”. For the same compound, the IC50 in data set [2] (setting [4]) is 3.2 ± 1.5 µM.

On to `CC[C@H](C)/C=C(C)/C=C/C1=CC2=C(I)C(=O)C(C)(O)C(=O)C2=CO1` (stereo partly drawn) [Compound 14], for which, in data set [2] (setting [4]), the IC50 was 19.6 ± 11.9 µM. For `CCOC(=O)C=C1C2=COC(/C=C/C(C)=C/[C@@H](C)CC)=CC2=CC(=O)C1(C)O` (stereo partly drawn) [Compound 15], the IC50 in data set [2] (setting [4]) was above 100 µM. As to `CCOC(=O)C=C1C2=COC(/C=C/C(C)=C/[C@@H](C)CC)=CC2=C(Br)C(=O)C1(C)O` (stereo partly drawn) [Compound 16], the IC50 in data set [2] (setting [4]) is above 100 µM.

`CCOC(=O)C=C1C2=COC(/C=C/C(C)=C/[C@@H](C)CC)=CC2=C(I)C(=O)C1(C)O` (stereo partly drawn) [Compound 17]: the IC50 in data set [2] (setting [4]) was above 100 µM.

Take asperfuranone [Compound 4]: the IC50 in data set [2] (setting [4]) is above 100 µM.
